Measurements from patent US20130197027A1, “HETEROCYCLYL-AZABICYCLO[3.2.1]OCTANE ANALOGS AS SELECTIVE M1 AGONISTS AND METHODS OF MAKING AND USING SAME” (priority 2010, published 2013).
Where a chain is given by its changes, count along the chain named. Read-outs that look alike come from different tables or passages of the source.

Experiments:
hM1 = biological target: T1, hM1 (Homo sapiens, UniProt P11229); assay: Calcium mobilization assay in CHO-K1 cells stably expressing human M1 (high throughput, FDSS 6000); type: cell-based; settings: for Emax: HM1, read-out: Efficacy (% Max ACh)
T1 construct: host or cells: CHO-K1
T1 sequence (P11229 1-460): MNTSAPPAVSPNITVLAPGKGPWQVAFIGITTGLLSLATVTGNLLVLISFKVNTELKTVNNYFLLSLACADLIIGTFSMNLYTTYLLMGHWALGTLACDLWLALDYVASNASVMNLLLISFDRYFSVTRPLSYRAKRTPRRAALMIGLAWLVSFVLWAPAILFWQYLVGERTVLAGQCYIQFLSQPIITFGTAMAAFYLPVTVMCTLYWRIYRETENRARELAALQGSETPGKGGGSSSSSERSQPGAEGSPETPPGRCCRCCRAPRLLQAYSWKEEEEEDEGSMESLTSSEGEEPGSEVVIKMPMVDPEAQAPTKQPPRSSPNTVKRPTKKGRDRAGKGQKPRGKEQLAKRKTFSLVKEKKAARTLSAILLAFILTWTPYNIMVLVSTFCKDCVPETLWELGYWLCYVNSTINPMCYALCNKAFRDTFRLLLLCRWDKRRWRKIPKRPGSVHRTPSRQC
Description: (§1) Chinese hamster ovary (CHO-K1) cells stably expressing rat (r) M1 were purchased from the American Type Culture Collection and cultured according to their indicated protocol. CHO cells stably expressing human (h)M2, hM3, and hM5 were described previously (Levey et al., 1991); hM1 and hM4 cDNAs were purchased from Missouri S&T cDNA Resource; rM4 cDNA was provided by T. I. Bonner (National Institutes of Health, Bethesda, Md.). hM1, hM4, and rM4 cDNAs were used to stably transfect CHO-K1 cells purchased from the American Type Culture Collection using Lipofectamine2000. To make stable hM2, hM4 and rM4 cell lines for use in calcium mobilization assays, these cells also were stably transfected with a chimeric G-protein (Gqi5) (provided by B. R. Conklin, University of California, San Francisco) using Lipofectamine 2000. rM1, hM3, and hM5 cells were grown in Ham's F-12 medium containing 10% heat-inactivated fetal bovine serum (FBS), 20 mM HEPES, and 50 μg/mL G418 sulfate. hM2-Gqi5 and hM4-Gqi5 cells were grown in the same medium also containing 500 μg/mL Hygromycin B. Stable rM4-Gqi5 cells were grown in DMEM containing 10% heat-inactivated FBS, 20 mM HEPES, 400 μg/mL G418 sulfate, and 500 μg/mL Hygromycin B. The rat M1 Y381A orthosteric mutant receptor cDNA was generated using the Quik-Change site-directed mutagenesis kit (Stratagene) and verified by sequencing. CHO-K1 cells were stably transfected with this cDNA using Lipofectamine2000 and screened for expression based on calcium mobilization in response to the allosteric M1 agonist N-desmethylclozapine.
For high throughput measurement of agonist-evoked increases in intracellular calcium, CHO-K1 cells stably expressing muscarinic receptors were plated in growth medium lacking G418 and hygromycin at 15,000 cells/20 μL/well (hM1, hM2-Gqi5, hM3, hM4-Gqi5, and hM5) in Greiner 384-well black-walled, tissue culture (TC)-treated, clear-bottom plates (VWR). Cells were incubated overnight at 37° C. and 5% CO2. The next day, cells were washed using an ELX 405 (BioTek) with three washes (50 μL) of assay buffer then aspirated to 15 μL. Next, 5 μL of 8 μM Fluo-4/acetoxymethyl ester (Invitrogen, Carlsbad, Calif.) prepared as a 2.3 mM stock in DMSO and mixed in a 1:1 ratio with 10% (w/v) Pluronic F-127 and diluted in assay buffer was added to the wells and the cell plates were incubated for 45 min at 37° C. and 5% CO2. Dye was removed by washing with the ELX 405 (three 50 μL washes of assay buffer) then aspirated to 20 μL. Agonist and compound master plates were formatted in an 11 point CRC format (1:3 dilutions) in 100% DMSO with a starting concentration of 10 mM using the BRAVO liquid handler (Agilent). Test compound CRCs were then transferred to daughter plates ([…]) using the Echo acoustic plate reformatter (Labcyte, Sunnyvale, Calif.) and then diluted into assay buffer (40 μL) to a 2× stock using a Thermo Fisher Combi (Thermo Fisher Scientific, Waltham, Mass.). Calcium flux was measured using the Functional Drug Screening System (FDSS) 6000 (Hamamatsu Corporation, Tokyo, Japan) as an increase in the fluorescent static ratio. 20 μL of Agonist Compounds were applied to cells using the automated system of the FDSS 6000 at 4 s into the 300 s protocol and the data were collected at 1 Hz. Concentration-response curves were generated using a four-parameter logistical equation in XLfit curve fitting software (IDBS, Bridgewater, N.J.) for Excel (Microsoft, Redmond, Wash.) or Prism (GraphPad Software, Inc., San Diego, Calif.).

rM1 = biological target: T2, rM1 (Rattus norvegicus, UniProt P08482); assay: Calcium mobilization assay in CHO-K1 cells stably expressing rat M1 (low throughput, Flexstation II); type: cell-based; settings: for Emax: RM1, read-out: Efficacy (% Max ACh)
T2 construct: host or cells: CHO-K1
T2 sequence (P08482 1-460): T1 sequence (P11229 1-460) with A5V, T254S, P309S, R320K, A337G, I413V
Description: as §1
For low throughput measurement of agonist-evoked increases in intracellular calcium, CHO-K1 cells stably expressing muscarinic receptors were plated in 100 μL of growth medium at 5×10^4 (rM1, hM3, and hM5) or 6×10^4 cells per well (rM1 Y381A, hM2, and rM4) in Costar 96-well black-walled, tissue culture (TC)-treated, clear-bottom plates (Fisher). Cells were incubated overnight at 37° C. and 5% CO2. The next day, medium was removed from the cells, and they were incubated with 50 μL of 2 μM Fluo-4/acetoxymethyl ester (Invitrogen, Carlsbad, Calif.) prepared as a 2.3 mM stock in DMSO and mixed in a 1:1 ratio with 10% (w/v) Pluronic F-127 and diluted in assay buffer [HBSS (Invitrogen) supplemented with 20 mM HEPES and 2.5 mM probenecid, pH 7.4] for 1 h at 37° C. and 5% CO2. Dye was removed and replaced with 50 μL of assay buffer. For calcium fluorescence measurements, CRCs of compounds (50 μl, 2×) were added 19 s after the beginning of data collection via a Flexstation II (Molecular Devices, Sunnyvale, Calif.). Fluorescence imaging continued for a total of 130 s acquisition time using an excitation wavelength of 488 nm, an emission wavelength of 525 nm, and a cutoff wavelength of 515 nm. All of the peaks of the calcium response were normalized to the response to a maximally effective concentration of ACh (ECmax). These normalized peak calcium response values were fit using GraphPad Prism version 4.0 to a four-parameter logistic equation to determine EC50 values.

[1] = agonist-evoked calcium mobilization, CHO-K1 hM1 cells, read-out: hM1 Potency (EC50)
[2] = agonist-evoked calcium mobilization, CHO-K1 rM1 cells, read-out: rM1 Potency (EC50)

SMILES	EC50 (hM1)	Emax (hM1)	EC50 (rM1)	Emax (rM1)	EC50 (hM1; [1])	EC50 (rM1; [2])
CCOC(=O)N1C2CCC1CC(N1CCC[C@@H](NC(=O)c3ccccc3C)C1)C2 (stereo partly drawn) [Example 2, ethyl 3-((R)-3-(2-methylbenzamido)piperidin-1-yl)-8-azabicyclo[3.2.1]octane-8-carboxylate]	53 nM	88%	5 nM	94%	–	–
CCOC(=O)N1C2CCC1CC(N1CCC[C@@H](NC(=O)c3ccc(F)c(F)c3)C1)C2 (stereo partly drawn) [Example 12, ethyl 3-((R)-3-(3,4-difluorobenzamido)piperidin-1-yl)-8-azabicyclo[3.2.1]octane-8-carboxylate]	–	68%	–	–	750 nM	–
CCOC(=O)N1C2CCC1CC(N1CCC[C@@H](NC(=O)c3ccccc3F)C1)C2 (stereo partly drawn) [Example 13, ethyl 3-((R)-3-(2-fluorobenzamido)piperidin-1-yl)-8-azabicyclo[3.2.1]octane-8-carboxylate]	–	38%	–	–	4200 nM	–
CCOC(=O)N1C2CCC1CC(N1CCC[C@@H](NC(=O)c3ccc(F)c(C)c3)C1)C2 (stereo partly drawn) [Example 8, ethyl 3-((R)-3-(4-fluoro-3-methylbenzamido)piperidin-1-yl)-8-azabicyclo[3.2.1]octane-8-carboxylate]	–	–	48 nM	93%	–	–
CCOC(=O)N1C2CCC1CC(N1CCC[C@@H](NC(=O)c3cccc(OC)c3)C1)C2 (stereo partly drawn) [Example 4, ethyl 3-((R)-3-(3-methoxybenzamido)piperidin-1-yl)-8-azabicyclo[3.2.1]octane-8-carboxylate]	250 nM	76%	52 nM	94%	–	–
CCOC(=O)N1C2CCC1CC(N1CCC[C@@H](NC(=O)c3ccc(F)cc3F)C1)C2 (stereo partly drawn) [Example 5, ethyl 3-((R)-3-(2,4-difluorobenzamido)piperidin-1-yl)-8-azabicyclo[3.2.1]octane-8-carboxylate]	–	–	69 nM	89%	–	–
CCOC(=O)N1C2CCC1CC(N1CCC[C@@H](NC(=O)c3c(F)cccc3F)C1)C2 (stereo partly drawn) [Example 15, ethyl 3-((R)-3-(2,6-difluorobenzamido)piperidin-1-yl)-8-azabicyclo[3.2.1]octane-8-carboxylate]	–	66%	–	–	330 nM	–
CCOC(=O)N1C2CCC1CC(N1CC[C@@H](NC(=O)c3ccccc3)C1)C2 (stereo partly drawn) [Example 17, ethyl 3-((R)-3-benzamidopyrrolidin-1-yl)-8-azabicyclo[3.2.1]octane-8-carboxylate]	–	54%	–	–	160 nM	–
CCOC(=O)N1C2CCC1CC(N1CCC[C@@H](NC(=O)c3ccccc3Cl)C1)C2 (stereo partly drawn) [Example 7, ethyl 3-((R)-3-(2-chlorobenzamido)piperidin-1-yl)-8-azabicyclo[3.2.1]octane-8-carboxylate]	570 nM	61%	39 nM	94%	–	–
CCOC(=O)N1C2CCC1CC(N1CCC[C@@H](NC(=O)c3cccc(C)c3)C1)C2 (stereo partly drawn) [Example 6, ethyl 3-((R)-3-(3-methylbenzamido)piperidin-1-yl)-8-azabicyclo[3.2.1]octane-8-carboxylate]	–	–	41 nM	94%	–	–
CCOC(=O)N1C2CCC1CC(N1CCC[C@@H](NC(=O)c3ccc(F)cc3)C1)C2 (stereo partly drawn) [Example 9, ethyl 3-((R)-3-(4-fluorobenzamido)piperidin-1-yl)-8-azabicyclo[3.2.1]octane-8-carboxylate]	–	–	38 nM	95%	–	–
CCOC(=O)N1C2CCC1CC(N1CCC[C@@H](NC(=O)c3ccccc3)C1)C2 (stereo partly drawn) [Example 3, ethyl 3-((R)-3-benzamidopiperidin-1-yl)-8-azabicyclo[3.2.1]octane-8-carboxylate]	–	79%	–	93%	1600 nM	112 nM
CCOC(=O)N1C2CCC1CC(N1CCC[C@@H](NC(=O)c3ccc(F)cc3Cl)C1)C2 (stereo partly drawn) [Example 14, ethyl 3-((R)-3-(2-chloro-4-fluorobenzamido)piperidin-1-yl)-8-azabicyclo[3.2.1]octane-8-carboxylate]	–	68%	–	–	620 nM	–
CCOC(=O)N1C2CCC1CC(N1CCC[C@@H](NC(=O)c3cc(Cl)ccc3F)C1)C2 (stereo partly drawn) [Example 11, ethyl 3-((R)-3-(5-chloro-2-fluorobenzamido)piperidin-1-yl)-8-azabicyclo[3.2.1]octane-8-carboxylate]	–	–	–	65%	–	590 nM
CCOC(=O)N1C2CCC1CC(N1CCC[C@@H](NC(=O)c3cc(F)cc(F)c3)C1)C2 (stereo partly drawn) [Example 10, ethyl 3-((R)-3-(3,5-difluorobenzamido)piperidin-1-yl)-8-azabicyclo[3.2.1]octane-8-carboxylate]	–	–	96 nM	90%	–	–
CCOC(=O)N1C2CCC1CC(N1CC[C@@H](NC(=O)c3ccccc3C)C1)C2 (stereo partly drawn) [Example 16, ethyl 3-((R)-3-(2-methylbenzamido)pyrrolidin-1-yl)-8-azabicyclo[3.2.1]octane-8-carboxylate]	–	57%	–	–	940 nM	–
